According to patent US11771685B2, “Compounds for the treatment of neurological or mitochondrial diseases” (MUSC FOUNDATION FOR RESEARCH DEVELOPMENT, priority 2018, dated 2023):
≈ marks a conversion by molar mass, not a printed value.

Key:
Brain tissue binding = assay type: in vitro ADME; conditions: in vitro, read-out: Brain tissue binding (% bound)
corneal kindled mouse = experiment: Mouse corneal kindled model; assay type: in vivo; conditions: 5% DMSO: 95% Neobee
Procedure: (§1) Synthesis for both compounds has been successfully scaled up. The pharmacokinetic (PK) parameters of these two Vitamin K analogs were determined via intravenous, intraperitoneal and oral administration in mice, and preliminary in vitro ADMET parameters were assessed (Table 3). These compounds are Ames-negative, have hepatic stability greater than 1 hour, can be formulated in oral solution and IV injection solution, can be synthesized in greater than 1 mg quantities, and have established brain PK. However, brain tissue binding was high for both compounds (97-98%). Both 3 (NT-181) and 17 (NT-102) have been tested for efficacy in the 6 Hz mouse seizure model at 22 mA and 32 mA, the corneal kindled mouse model, and the rat in vitro spontaneous electrographic bursting model of pharmacoresistance (Table 4). […] Preliminary studies with this new formulation reveal excellent solubility with full protection in the 6 Hz mouse seizure model at 22 mA, and quantification of both compounds (using this new formulation) in this model at 22 mA, 32 mA and 44 mA, is being performed as well as retesting in the corneal kindled model. […] Rat PK assessments will be performed, and seizure protection assessed in rat models in the ADD workflow such as the 6 Hz model and lamotrigine-resistant amygdala kindled mode.

[1] = Rotarod neurotoxicity test in mice; assay type: in vivo, mouse; conditions: for Neurotoxicity (Rotorod assay), animals showing toxicity: 5% DMSO: 95% Neobee; for Rotarod (Tox) N/T, mice that fell off: 1 hr, 32 mA study
[2] = Mini-Ames test (mutagenicity); assay type: cell-based; conditions: in vitro
rat brain slices = experiment: Rat in vitro spontaneous electrographic bursting model
Procedure: as §1

[3] = Aqueous solubility at pH 7.4; assay type: physicochemical; conditions: pH 7.4, aqueous buffer; 50 mM phosphate buffer
[4] = test system: 6 Hz electrically-induced seizures in mice; experiment: 6 Hz mouse seizure model; assay type: in vivo; conditions: for Number of Animals Protected / Effective Dose / Time of Peak Effect: 5% DMSO: 95% Neobee; for protection against seizures, preliminary testing: toxicity by Rotarod assay and behavioral observations; for 6 Hz 32 mA N/T, mice protected / 6 Hz 44 mA N/T, mice protected: 1 hr
Procedure: In particular, using (i) electrical model to test for seizures in mice and, separately, (ii) in rat 6 Hz 40V model. More specifically, NT-102 was injected (i.p.) in 5% DMSO/95% Miglyol 840 as vehicle. […] […] The mice were administered the NT-102 at various doses and placed on the rotarod (i.e., “Rotarod (Tox)”) to test if the mice would fall off as a model of due to the effects of NT-102; for the “Rotarod(Tox)” results, the “NIT” indicates the number of mice that fell off the rotarod (e.g., for Rotarod(Tox) results, if N/T is 0/8, then zero out of eight mice fell off). […] […] The 44 mA electrical dosage was used since it is considered to be a model to test for medication-resistant epilepsy.

[5] = Rotarod neurotoxicity test in mice; assay type: in vivo, mouse; conditions: 1 hr, 44 mA study
Procedure: Mice or rats were administered the NT-102 compound i.p., one hour was allowed to pass (since the time to peak effect was determined to be about one hour), and then rodents were then placed on the Rotarod to determine if any motor defects would be observed; after the rotarod test, then rodents were administered an electrical stimulation to determine if the dose of NT-102 would protect against (i.e., prevent) the seizures due to the electrical stimulation. In particular, using (i) electrical model to test for seizures in mice and, separately, (ii) in rat 6 Hz 40V model. More specifically, NT-102 was injected (i.p.) in 5% DMSO/95% Miglyol 840 as vehicle. Mice were challenged with 6 Hz 44 mA current to see if seizures would result. […] The Time of Peak Effect (TPE) was observed 1 hour. Additional data is shown below in Table 5. The mice were administered the NT-102 at various doses and placed on the rotarod (i.e., “Rotarod (Tox)”) to test if the mice would fall off as a model of due to the effects of NT-102; for the “Rotarod(Tox)” results, the “NIT” indicates the number of mice that fell off the rotarod (e.g., for Rotarod(Tox) results, if N/T is 0/8, then zero out of eight mice fell off). For the electrical stimulation data (i.e., “6 Hz 44 mA”), an electrical stimulation of 6 Hz 44 mA was administered. […] The 44 mA electrical dosage was used since it is considered to be a model to test for medication-resistant epilepsy.

[6] = test system: 6 Hz 40 V electrically-induced seizures in rats; experiment: Rat 6 Hz 40 V seizure model; assay type: in vivo
Procedure: In particular, using (i) electrical model to test for seizures in mice and, separately, (ii) in rat 6 Hz 40V model. More specifically, NT-102 was injected (i.p.) in 5% DMSO/95% Miglyol 840 as vehicle. Mice were challenged with 6 Hz 44 mA current to see if seizures would result. […] The Time of Peak Effect (TPE) was observed 1 hour. Additional data is shown below in Table 5. The mice were administered the NT-102 at various doses and placed on the rotarod (i.e., “Rotarod (Tox)”) to test if the mice would fall off as a model of due to the effects of NT-102; for the “Rotarod(Tox)” results, the “NIT” indicates the number of mice that fell off the rotarod (e.g., for Rotarod(Tox) results, if N/T is 0/8, then zero out of eight mice fell off). For the electrical stimulation data (i.e., “6 Hz 44 mA”), an electrical stimulation of 6 Hz 44 mA was administered. […] The 44 mA electrical dosage was used since it is considered to be a model to test for medication-resistant epilepsy.
The 6 Hz 40 V electrical stimulation amount was used because this electrical dosage is considered to be a rat model for medication-resistant epilepsy.

Which results are given for CCC#CCNC1=CC(=O)c2ccccc2C1=O [Compound 3, 2-(Pent-2-yn-1-ylamino)naphthalene-1,4-dione]?
fraction unbound (Brain tissue binding): 0.02 to 0.03; Number of Animals Protected (corneal kindled mouse; 300 mg/kg): 0/8 at 300 mg/kg; Neurotoxicity (Rotorod assay), animals showing toxicity [1]: 1/71 showed toxicity; Mini-Ames test (mutagenicity) [2]: Ames-negative; Mini-Ames test (mutagenicity) ([2]; listed as NT-181): Negative; Number protected (rat brain slices; 5 uM): 0/8 at 5 uM; solubility [3]: 4.79 µg/mL (≈ 20 µM); Number of Animals Protected ([4]; 22 mA, 100 mg/kg): 8/8 at 100 mg/kg; Effective Dose ([4]; 22 mA): 80.60 (25-100) mg/kg; Time of Peak Effect ([4]; 22 mA): 0.5 h; Number of Animals Protected ([4]; 32 mA, 100 mg/kg): 0/7; Number of Animals Protected ([4]; 32 mA, 300 mg/kg): 3/8; Number of Animals Protected ([4]; 44 mA, 100 mg/kg): 0/8 at 100 mg/kg; protection against seizures, preliminary testing [4]: displayed protection against seizures with few or no toxic events

Which results are given for CC(C)CCNC1=CC(=O)c2ccccc2C1=O [Compound 17, 2-(Isopentylamino)naphthalene-1,4-dione]?
fraction unbound (Brain tissue binding): 0.02 to 0.03; Number of Animals Protected (corneal kindled mouse; 100, 300 and 400 mg/kg): 0/24 at 100, 300 and 400 mg/kg; Rotarod (Tox) N/T, mice that fell off ([5]; 100 mg/kg i.p.): 0/8; Rotarod (Tox) N/T, mice that fell off ([5]; 200 mg/kg i.p.): 2/8; Rotarod (Tox) N/T, mice that fell off ([5]; 300 mg/kg i.p.): 0/8; Rotarod (Tox) N/T, mice that fell off ([5]; 400 mg/kg i.p.): 1/8; Rotarod (Tox) N/T, mice that fell off ([1]; 50 mg/kg): 0/8; Rotarod (Tox) N/T, mice that fell off ([1]; 100 mg/kg): 0/8; Rotarod (Tox) N/T, mice that fell off ([1]; 200 mg/kg): 1/8; Rotarod (Tox) N/T, mice that fell off ([1]; 300 mg/kg): 3/8; Neurotoxicity (Rotorod assay), animals showing toxicity [1]: 0/72 showed toxicity; 6 Hz 40 V N/T, rats protected ([6]; 200 mg/kg, 1 hr): 1/8; 6 Hz 40 V N/T, rats protected ([6]; 250 mg/kg, 1 hr): 2/8; 6 Hz 40 V N/T, rats protected ([6]; 300 mg/kg i.p., 0.25 hr): 3/8; 6 Hz 40 V N/T, rats protected ([6]; 300 mg/kg i.p., 0.5 hr): 0/8; 6 Hz 40 V N/T, rats protected ([6]; 300 mg/kg i.p., 1 hr): 5/8; 6 Hz 40 V N/T, rats protected ([6]; 300 mg/kg i.p., 2 hr): 0/4; 6 Hz 40 V N/T, rats protected ([6]; 300 mg/kg i.p., 4 hr): 0/4; 6 Hz 40 V N/T, rats protected ([6]; 350 mg/kg, 1 hr): 6/8; ED50 ([6]; Rattus norvegicus, 6 Hz 40 V): 293 mg/kg; Time to peak result ([6]; i.p., 6 Hz 40 V): about one; Mini-Ames test (mutagenicity) [2]: Ames-negative; Mini-Ames test (mutagenicity) ([2]; listed as NT-102): Negative; Number protected (rat brain slices; 10 uM): 0/9 at 10 uM; solubility [3]: 9.64 µg/mL (≈ 39.6 µM); 6 Hz 32 mA N/T, mice protected ([4]; 50 mg/kg): 0/8; 6 Hz 44 mA N/T, mice protected ([4]; 100 mg/kg i.p.): 0/8; 6 Hz 32 mA N/T, mice protected ([4]; 100 mg/kg): 4/8; 6 Hz 44 mA N/T, mice protected ([4]; 200 mg/kg i.p.): 2/8; 6 Hz 32 mA N/T, mice protected ([4]; 200 mg/kg): 3/8; 6 Hz 44 mA N/T, mice protected ([4]; 300 mg/kg i.p.): 4/8; 6 Hz 32 mA N/T, mice protected ([4]; 300 mg/kg): 7/8; 6 Hz 44 mA N/T, mice protected ([4]; 400 mg/kg i.p.): 8/8; Time of Peak Effect (TPE) ([4]; 6 Hz 44 mA, i.p., 5% DMSO/95% Miglyol 840): 1 h; Number of Animals Protected ([4]; 22 mA, 400 mg/kg): 8/8 at 400 mg/kg; Effective Dose ([4]; 22 mA): 209.05 (25-400) mg/kg; Time of Peak Effect ([4]; 22 mA): 0.25 h; Number of Animals Protected ([4]; 32 mA, 400 mg/kg): 2/8 at 400 mg/kg; ED50 ([4]; Mus musculus, 6 Hz 32 mA): 153 mg/kg; protection against seizures, preliminary testing [4]: displayed protection against seizures with few or no toxic events
